According to ChEMBL document CHEMBL1201862, “PubChem BioAssay data set” (2004):
Active and inactive are the calls of the source.

Tests used:
[1] = target: Peroxisome proliferator-activated receptor alpha (Homo sapiens, UniProt Q07869); assay: Late stage assay provider counterscreen for partial agonists of the peroxisome proliferator-activated receptor gamma (PPARg): Luminescence-based cell-based dose response assay for partial agonists of the peroxisome proliferator-activated receptor alpha (PPARA). [Related pubchem assays (depositor defined):AID1051, AID1300, AID1319, AID1679, AID1808, AID504446, AID504447, AID504452, AID504453, AID631]; assay type: functional
[2] = target: T1, Peroxisome proliferator-activated receptor gamma (Homo sapiens, UniProt P37231); assay: PPARg partial agonists, dose response, cell-based, luminescence, assay provider (AID 504447); assay type: functional
[3] = target: T1, Peroxisome proliferator-activated receptor gamma; assay: PPARg ligand-binding domain binders, dose response, PPARg partial agonist project, biochemical, TR-FRET, LanthaScreen (AID 504446)
[4] = target: T2, Replicative DNA helicase DnaB (Mycobacterium tuberculosis, UniProt P9WMR3); assay: DnaB intein splicing inhibitors, dose response, biochemical, cell-free fluorescence (AID 449749); assay type: functional
T2 sequence (P9WMR3 whole entry): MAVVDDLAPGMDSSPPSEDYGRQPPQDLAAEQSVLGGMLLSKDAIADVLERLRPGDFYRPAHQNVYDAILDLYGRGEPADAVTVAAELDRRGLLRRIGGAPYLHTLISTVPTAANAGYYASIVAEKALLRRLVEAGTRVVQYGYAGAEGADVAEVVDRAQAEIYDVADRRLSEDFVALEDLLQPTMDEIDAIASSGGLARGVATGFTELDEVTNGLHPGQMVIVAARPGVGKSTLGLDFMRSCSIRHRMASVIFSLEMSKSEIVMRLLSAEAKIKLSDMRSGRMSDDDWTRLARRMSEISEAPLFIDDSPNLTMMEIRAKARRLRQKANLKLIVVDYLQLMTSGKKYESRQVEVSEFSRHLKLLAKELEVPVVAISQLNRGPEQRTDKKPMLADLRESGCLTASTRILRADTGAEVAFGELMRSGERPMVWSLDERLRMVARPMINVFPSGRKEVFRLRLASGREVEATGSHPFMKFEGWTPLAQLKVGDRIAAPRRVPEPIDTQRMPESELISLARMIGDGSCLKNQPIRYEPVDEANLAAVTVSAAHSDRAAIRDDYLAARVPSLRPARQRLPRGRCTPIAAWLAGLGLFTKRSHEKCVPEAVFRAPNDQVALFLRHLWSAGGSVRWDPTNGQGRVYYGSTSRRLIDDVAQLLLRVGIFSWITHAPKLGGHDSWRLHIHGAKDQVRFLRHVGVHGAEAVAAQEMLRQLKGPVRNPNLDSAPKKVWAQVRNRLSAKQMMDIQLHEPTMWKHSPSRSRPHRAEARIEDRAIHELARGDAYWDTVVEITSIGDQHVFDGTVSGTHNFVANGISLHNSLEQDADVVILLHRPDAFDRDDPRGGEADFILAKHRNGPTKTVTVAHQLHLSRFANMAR

Protein RecA = target: T3, Protein RecA (Mycobacterium tuberculosis, UniProt P9WHJ3); assay: Fluorescence Cell-Free Homogeneous Dose Retest to Identify Inhibitors of RecA-Intein Splicing Activity. [Related pubchem assays (depositor defined):AID2097, AID2223, AID489010, AID492950]; assay type: functional
T3 sequence (P9WHJ3 whole entry): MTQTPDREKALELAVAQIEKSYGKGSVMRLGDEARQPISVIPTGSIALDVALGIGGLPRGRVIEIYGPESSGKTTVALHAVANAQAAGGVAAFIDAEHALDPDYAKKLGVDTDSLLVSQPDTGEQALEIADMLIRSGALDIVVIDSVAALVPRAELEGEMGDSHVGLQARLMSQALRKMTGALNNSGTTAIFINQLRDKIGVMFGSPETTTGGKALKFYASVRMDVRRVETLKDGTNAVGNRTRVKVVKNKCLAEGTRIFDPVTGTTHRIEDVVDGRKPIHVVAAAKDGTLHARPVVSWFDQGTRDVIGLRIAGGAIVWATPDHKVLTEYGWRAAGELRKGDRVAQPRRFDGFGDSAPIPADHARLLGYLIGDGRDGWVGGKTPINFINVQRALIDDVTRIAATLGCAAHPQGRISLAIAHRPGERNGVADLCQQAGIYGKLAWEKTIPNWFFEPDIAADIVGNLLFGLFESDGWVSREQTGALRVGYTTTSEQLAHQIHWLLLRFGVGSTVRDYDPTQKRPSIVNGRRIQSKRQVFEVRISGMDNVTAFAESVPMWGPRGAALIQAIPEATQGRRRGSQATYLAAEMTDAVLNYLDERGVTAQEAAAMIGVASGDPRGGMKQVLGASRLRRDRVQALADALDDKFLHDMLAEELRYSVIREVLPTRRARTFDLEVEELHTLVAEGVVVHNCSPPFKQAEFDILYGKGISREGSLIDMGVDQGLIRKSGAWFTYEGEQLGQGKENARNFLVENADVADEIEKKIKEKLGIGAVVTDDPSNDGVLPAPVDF

Coagulation factor XII = target: T4, Coagulation factor XII (Homo sapiens, UniProt P00748); assay: Factor XIIa Dose Response Confirmation from Single Well HTS. [Related pubchem assays (depositor defined):AID701]; assay type: functional
T4 sequence (P00748 whole entry): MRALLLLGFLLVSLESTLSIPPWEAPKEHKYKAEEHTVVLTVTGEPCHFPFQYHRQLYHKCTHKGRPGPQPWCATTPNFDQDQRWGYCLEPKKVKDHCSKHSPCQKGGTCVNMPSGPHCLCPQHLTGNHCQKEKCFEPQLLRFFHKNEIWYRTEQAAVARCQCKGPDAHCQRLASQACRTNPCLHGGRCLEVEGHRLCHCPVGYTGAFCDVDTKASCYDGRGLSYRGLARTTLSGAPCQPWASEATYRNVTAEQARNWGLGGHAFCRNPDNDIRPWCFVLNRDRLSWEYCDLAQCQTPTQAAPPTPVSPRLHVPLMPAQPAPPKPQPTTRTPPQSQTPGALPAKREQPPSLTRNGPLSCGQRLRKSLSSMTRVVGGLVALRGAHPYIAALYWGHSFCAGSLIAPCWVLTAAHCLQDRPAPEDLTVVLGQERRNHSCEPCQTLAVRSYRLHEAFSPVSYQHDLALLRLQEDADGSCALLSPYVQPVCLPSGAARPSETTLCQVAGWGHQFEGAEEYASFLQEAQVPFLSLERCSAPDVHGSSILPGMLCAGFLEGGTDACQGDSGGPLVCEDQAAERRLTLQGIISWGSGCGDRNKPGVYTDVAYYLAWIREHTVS

[5] = target: T5, Dual specificity protein phosphatase 3 (Homo sapiens, UniProt P51452); assay: SAR VHR1 absorbance Assay for In Vitro dose response studies. [Related pubchem assays (depositor defined):AID1654, AID1661, AID1878, AID1992, AID2004]
[6] = target: T6, Tyrosine-protein phosphatase non-receptor type 7 (Homo sapiens, UniProt P35236); assay: redox-dependent HePTP inhibition, mechanism study, biochemical, fluorescence (AID 2068); assay type: functional
T6 sequence (P35236 whole entry): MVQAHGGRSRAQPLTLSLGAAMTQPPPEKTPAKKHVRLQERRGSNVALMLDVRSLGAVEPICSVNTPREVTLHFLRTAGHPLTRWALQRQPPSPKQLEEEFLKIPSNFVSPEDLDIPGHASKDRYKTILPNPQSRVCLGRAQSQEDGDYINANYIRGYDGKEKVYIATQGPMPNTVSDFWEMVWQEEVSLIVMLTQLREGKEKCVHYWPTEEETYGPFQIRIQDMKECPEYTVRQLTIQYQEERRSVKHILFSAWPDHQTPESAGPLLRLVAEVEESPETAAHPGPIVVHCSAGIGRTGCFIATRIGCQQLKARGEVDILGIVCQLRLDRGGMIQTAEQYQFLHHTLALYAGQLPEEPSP

[7] = target: T5, Dual specificity protein phosphatase 3; assay: SAR VHR1 Fluorescent Assay for In Vitro dose response studies Set 2. [Related pubchem assays (depositor defined):AID1654, AID1661, AID1878]; assay type: functional
[8] = target: T7, Dual specificity protein phosphatase 6 (Rattus norvegicus, UniProt Q64346); assay type: functional;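 further: confirmatory in vitro dose-response testing of MKP-3 inhibition; recombinant His-tagged MKP-3 made in E. coli BL21 with OMFP substrate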
T7 sequence (Q64346 whole entry): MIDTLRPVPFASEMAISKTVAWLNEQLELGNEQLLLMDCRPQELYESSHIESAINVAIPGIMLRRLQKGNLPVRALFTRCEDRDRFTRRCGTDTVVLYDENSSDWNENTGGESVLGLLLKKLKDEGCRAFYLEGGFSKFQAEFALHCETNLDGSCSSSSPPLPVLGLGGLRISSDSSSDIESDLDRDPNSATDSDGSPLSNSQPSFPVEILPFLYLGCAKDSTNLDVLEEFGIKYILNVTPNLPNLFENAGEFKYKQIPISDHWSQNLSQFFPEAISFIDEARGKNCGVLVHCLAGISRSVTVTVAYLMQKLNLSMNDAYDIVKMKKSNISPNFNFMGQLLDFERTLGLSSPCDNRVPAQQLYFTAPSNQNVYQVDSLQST

[9] = target: T5, Dual specificity protein phosphatase 3; assay: SAR VHR1 Fluorescent Assay for In Vitro dose response studies. [Related pubchem assays (depositor defined):AID1654, AID1661, AID1878, AID1992, AID2004, AID2070, AID2085]; assay type: functional
[10] = Luminescence Cell-Based Dose Response HTS to Identify Activators of Luciferase Translation or Activity in H4-C Neuroglioblastoma Cells. [Related pubchem assays: 1829 (Project Summary), 1814 (Primary HTS)]; assay type: functional
[11] = inhibitors of SNCA 5'UTR-driven reporter translation, confirmation, H4 neuroglioma cells, luminescence (AID 1988); assay type: functional, cell-based
[12] = inhibitors of firefly luciferase expression or activity, dose response, H4 neuroglioma cells, luminescence (AID 1990); assay type: functional, cell-based
[13] = luciferase reporter signal reduction – luminescence, H4-C neuroglioblastoma cells, dose response (AID 2458); assay type: functional, cell-based;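 further: H4 neuroglioblastoma cells stably carrying a luciferase reporter gene fusion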
cells = assay type: functional, cell-based
J774.A1 = assay: Confirmation of image-based Screening Assay for Inhibitors of Phagocytosis. [Related pubchem assays (depositor defined):AID1029, AID1643]; assay type: functional, cell-based; settings: Mus musculus
[14] = Luminescence Cell-Based Dose HTS Response to Identify Inhibitors of 5'UTR Stem-Loop Driven Prion Protein mRNA Translation in H4-C Neuroglioblastoma Cells. [Related pubchem assays (depositor defined):AID1814, AID1827]; assay type: functional
[15] = Luminescence Cell-Based Dose Retest to Confirm Activators of 5'UTR Stem-Loop Driven Alpha-Synuclein mRNA Translation in H4 Neuroglioblastoma Cells. [Related pubchem assays (depositor defined):AID1813, AID1829]; assay type: functional
[16] = Luminescence Cell-Based Dose Confirmation HTS to Identify Inhibitors of 5'UTR Stem-Loop Driven Alpha-Synuclein mRNA Translation in H4 Neuroglioblastoma Cells. [Related pubchem assays: 1827 (Project Summary), 1813 (Primary HTS)]; assay type: functional
[17] = Luminescence Cell-Based Dose Response HTS to Identify Activators of 5'UTR Stem-Loop Driven Prion Protein mRNA Translation in H4-C Neuroglioblastoma Cells. [Related pubchem assays: 1829 (Project Summary), 1814 (Primary HTS)]; assay type: functional
[18] = inhibitors of SNCA 5'UTR-driven translation, confirmation, luminescence, H4 neuroglioblastoma cells, dose confirmation (AID 2454); assay type: functional, cell-based;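 further: H4 neuroglioblastoma cells carrying an alpha-synuclein 5'UTR luciferase reporter; potency for inhibition of the luciferase signal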
[19] = Luminescence Cell-Based Dose Response HTS to Identify Inhibitors of Luciferase Translation or Activity in H4-C Neuroglioblastoma Cells. [Related pubchem assays: 1813 (Primary HTS), 1827 (Project Summary)]; assay type: functional
[20] = Luminescence Cell-Based Dose Response HTS to Identify Inhibitors of 5'UTR Stem-Loop Driven Prion Protein mRNA Translation in H4 Neuroglioblastoma Cells. [Related pubchem assays: 1827 (Project Summary), 1813 (Primary HTS)]; assay type: functional

T5 sequence (P51452 whole entry): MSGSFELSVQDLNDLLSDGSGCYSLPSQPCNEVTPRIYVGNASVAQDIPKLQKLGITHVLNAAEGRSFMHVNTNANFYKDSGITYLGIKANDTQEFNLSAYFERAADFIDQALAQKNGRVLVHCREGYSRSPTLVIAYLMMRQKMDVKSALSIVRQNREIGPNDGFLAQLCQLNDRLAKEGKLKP
T1 sequence (P37231 whole entry, the tested form may be a part): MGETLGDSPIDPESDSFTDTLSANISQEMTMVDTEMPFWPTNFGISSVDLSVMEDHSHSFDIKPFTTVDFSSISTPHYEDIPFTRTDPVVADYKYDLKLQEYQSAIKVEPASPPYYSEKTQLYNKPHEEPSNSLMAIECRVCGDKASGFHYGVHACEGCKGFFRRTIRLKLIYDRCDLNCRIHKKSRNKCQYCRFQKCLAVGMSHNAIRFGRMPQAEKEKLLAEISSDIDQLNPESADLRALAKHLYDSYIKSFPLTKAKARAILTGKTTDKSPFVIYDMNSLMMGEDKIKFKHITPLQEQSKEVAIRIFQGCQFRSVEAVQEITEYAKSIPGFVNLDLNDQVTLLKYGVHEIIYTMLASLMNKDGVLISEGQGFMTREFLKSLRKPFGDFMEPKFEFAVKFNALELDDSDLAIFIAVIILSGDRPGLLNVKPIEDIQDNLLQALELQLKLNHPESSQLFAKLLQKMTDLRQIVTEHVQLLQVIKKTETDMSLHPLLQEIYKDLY
Sequence of Peroxisome proliferator-activated receptor alpha (Q07869 whole entry): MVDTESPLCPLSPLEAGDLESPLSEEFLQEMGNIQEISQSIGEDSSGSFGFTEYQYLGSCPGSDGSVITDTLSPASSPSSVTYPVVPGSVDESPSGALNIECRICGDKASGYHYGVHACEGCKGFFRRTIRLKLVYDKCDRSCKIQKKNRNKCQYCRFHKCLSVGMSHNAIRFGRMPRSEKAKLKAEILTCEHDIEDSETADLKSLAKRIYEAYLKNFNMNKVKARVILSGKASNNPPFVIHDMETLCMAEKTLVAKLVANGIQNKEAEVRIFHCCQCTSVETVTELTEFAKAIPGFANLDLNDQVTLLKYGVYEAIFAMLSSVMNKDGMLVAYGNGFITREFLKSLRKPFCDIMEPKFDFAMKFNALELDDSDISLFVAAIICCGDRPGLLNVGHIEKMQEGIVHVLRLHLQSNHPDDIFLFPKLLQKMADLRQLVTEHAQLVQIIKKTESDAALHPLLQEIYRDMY

## O=C(O)CCN1C(=O)/C(=C/c2cccc(OCc3ccc(F)cc3)c2)SC1=S
[1]
  EC50: 0.243 µM (active)
[2]
  EC50: 3 µM (active)
[3]
  IC50: 1.9 µM (active)

## O=C(Oc1cccc(-n2cnnn2)c1)c1ccco1
[4]
  AC50: 23.8 µM (active)
Protein RecA
  EC50: 15.1 µM (active)
Coagulation factor XII
  IC50: 12.4 µM (active)

## NS(=O)(=O)c1cc(C(=O)NC2CCCc3ccccc32)ccc1Cl (centres undefined)
[5]
  IC50: > 100 µM (inactive)
[6]
  IC50: > 100 µM (inactive)
[7]
  IC50: > 100 µM (inactive)
[8]
  IC50: > 100 µM (inactive)
[9]
  IC50: > 100 µM (inactive)

## N#CC1=C(N)Oc2c(ccc3ccccc23)C1c1cccs1 (centres undefined)
[10]
  EC50: 0.246 µM (inconclusive)
[11]
  EC50: < 0.1 µM (active)
[12]
  EC50: 5.47 µM (inconclusive)
[13]
  EC50: 0.474 µM (active)
cells
  EC50: 0.885 µM (active)
J774.A1
  IC50: 1.86 µM (active)
[14]
  EC50: 0.162 µM (active)
[15]
  EC50: 9.28 µM (inconclusive)
[16]
  EC50: 9.28 µM (active)
[17]
  EC50: 0.162 µM (inconclusive)
[18]
  EC50: 0.739 µM (active)
[19]
  EC50: 0.246 µM (active)
[20]
  EC50: 9.47 µM (active)
